For this assay, the target named is human SSTR2 (Homo sapiens (Human), UniProt P30874). Kind of assay: Human SSTR2 intracellular cAMP functional assay for agonists (HTRF). It counts as cell-based. The note with it: CHO-K1 cells stably expressing human SSTR2; NKH477-stimulated cAMP; read-out: EC50 (inhibition of cAMP activities via human SST2R). The method, boiled down:
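Cells bearing human SSTR2 exposed to compound for 20 minutes at 37 °C; after lysis, cAMP measured by time-resolved fluorescence (HTRF) and converted via a standard curve. EC50 calculated from cAMP versus compound concentration.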

pEC50: −log10 of the molar value.

Sequence of human SSTR2 (P30874 whole entry): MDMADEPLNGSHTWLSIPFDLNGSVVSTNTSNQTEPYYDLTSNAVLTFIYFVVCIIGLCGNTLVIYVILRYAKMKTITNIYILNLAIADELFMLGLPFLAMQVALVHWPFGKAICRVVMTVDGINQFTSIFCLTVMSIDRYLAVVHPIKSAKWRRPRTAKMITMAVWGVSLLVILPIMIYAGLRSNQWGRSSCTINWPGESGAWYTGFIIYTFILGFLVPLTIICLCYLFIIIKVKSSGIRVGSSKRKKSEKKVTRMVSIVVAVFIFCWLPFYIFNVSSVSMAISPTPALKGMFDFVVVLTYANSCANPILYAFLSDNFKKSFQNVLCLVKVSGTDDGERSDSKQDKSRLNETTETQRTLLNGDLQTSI

Consider `Cc1cc(F)cc(-c2cnc3ncc(-c4cc(F)cc(C#N)c4O)cc3c2N2CCC(N)CC2)c1` [4-3, 3-[5-(4-aminopiperidin-1-yl)-6-(3-fluoro-5-methylphenyl)-1,8-naphthyridin-3-yl]-5-fluoro-2-hydroxybenzonitrile], for which the pEC50 (commonly the EC50 on a negative log10 scale, so that one unit is a factor of ten) was above 8.00.

As to `Cc1cc(Cl)cc(-c2cnc3ncc(-c4cccc(C#N)c4O)cc3c2N2CCC(N)CC2)c1` [4-4, 3-[5-(4-aminopiperidin-1-yl)-6-(3-chloro-5-methylphenyl)-1,8-naphthyridin-3-yl]-2-hydroxybenzonitrile], the pEC50 is above 8.00.

Values taken from patent publication US10351547B2, “Somatostatin modulators and uses thereof” (priority 2016, dated 2019).
